How the values were obtained:
Test in all cases: Test C pre-/postemergence greenhouse test
Type in all cases: in vivo
Details in all cases: scale 0 to 100
[1] = system: blackgrass (Alopecurus myosuroides)
Method in brief: (§1)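 Seeds sown in silt loam soil and sprayed preemergence with test chemicals in a non-phytotoxic solvent mixture containing surfactant. Postemergence plants, 2 to 18 cm (1- to 4-leaf stage), grown in peat/vermiculite planting medium and treated with the same formulation. Visual injury rated 0–100 versus untreated controls after 13 to 21 d in the greenhouse.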

corn (Zea mays) = system: corn (Zea mays)
Method in brief: as §1

[2] = system: crabgrass, large (Digitaria sanguinalis)
Method in brief: as §1

[3] = system: foxtail, giant (Setaria faberii)
Method in brief: as §1

[4] = system: johnsongrass (Sorghum halepense)
Method in brief: as §1

kochia (Kochia scoparia) = system: kochia (Kochia scoparia)
Method in brief: as §1

[5] = system: lambsquarters (Chenopodium album)
Method in brief: as §1

[6] = system: morningglory (Ipomoea coccinea)
Method in brief: as §1

oat, wild (Avena fatua) = system: oat, wild (Avena fatua)
Method in brief: as §1

[7] = system: pigweed, palmer (Amaranthus palmeri)
Method in brief: as §1

[8] = system: ragweed (common ragweed, Ambrosia elatior)
Method in brief: as §1

[9] = system: ryegrass, Italian (Lolium multiflorum)
Method in brief: as §1

[10] = system: surinam grass (Brachiaria decumbens)
Method in brief: as §1

[11] = system: windgrass (Apera spica-venti)
Method in brief: as §1

Cc1cc(Cl)c2ccccc2c1-c1c(O)c(Cl)nn(C)c1=O [Cpd. No. 65]
Plant response rating, Blackgrass ([1]; Postemergence, 16 g ai/ha): 55 | Plant response rating, Blackgrass ([1]; Postemergence, 31 g ai/ha): 90 | Plant response rating, Blackgrass ([1]; Postemergence, 62 g ai/ha): 90 | Plant response rating, Blackgrass ([1]; Postemergence, 125 g ai/ha): 95 | Plant response rating, Blackgrass ([1]; Preemergence, 31 g ai/ha): 5 | Plant response rating, Blackgrass ([1]; Preemergence, 61 g ai/ha): 10 | Plant response rating, Blackgrass ([1]; Preemergence, 62 g ai/ha): 55 | Plant response rating, Blackgrass ([1]; Preemergence, 125 g ai/ha): 85 | Plant response rating, Corn (corn (Zea mays); Postemergence, 16 g ai/ha): 30 | Plant response rating, Corn (corn (Zea mays); Postemergence, 31 g ai/ha): 40 | Plant response rating, Corn (corn (Zea mays); Postemergence, 62 g ai/ha): 65 | Plant response rating, Corn (corn (Zea mays); Postemergence, 125 g ai/ha): 75 | Plant response rating, Corn (corn (Zea mays); Preemergence, 31 g ai/ha): 0 | Plant response rating, Corn (corn (Zea mays); Preemergence, 61 g ai/ha): 0 | Plant response rating, Corn (corn (Zea mays); Preemergence, 62 g ai/ha): 5 | Plant response rating, Corn (corn (Zea mays); Preemergence, 125 g ai/ha): 15 | Plant response rating, Crabgrass, Large ([2]; Postemergence, 16 g ai/ha): 30 | Plant response rating, Crabgrass, Large ([2]; Postemergence, 31 g ai/ha): 40 | Plant response rating, Crabgrass, Large ([2]; Postemergence, 62 g ai/ha): 40 | Plant response rating, Crabgrass, Large ([2]; Postemergence, 125 g ai/ha): 70 | Plant response rating, Crabgrass, Large ([2]; Preemergence, 31 g ai/ha): 0 | Plant response rating, Crabgrass, Large ([2]; Preemergence, 61 g ai/ha): 0 | Plant response rating, Crabgrass, Large ([2]; Preemergence, 62 g ai/ha): 60 | Plant response rating, Crabgrass, Large ([2]; Preemergence, 125 g ai/ha): 65 | Plant response rating, Foxtail, Giant ([3]; Postemergence, 16 g ai/ha): 95 | Plant response rating, Foxtail, Giant ([3]; Postemergence, 31 g ai/ha): 95 | Plant response rating, Foxtail, Giant ([3]; Postemergence, 62 g ai/ha): 98 | Plant response rating, Foxtail, Giant ([3]; Postemergence, 125 g ai/ha): 98 | Plant response rating, Foxtail, Giant ([3]; Preemergence, 31 g ai/ha): 75 | Plant response rating, Foxtail, Giant ([3]; Preemergence, 61 g ai/ha): 35 | Plant response rating, Foxtail, Giant ([3]; Preemergence, 62 g ai/ha): 95 | Plant response rating, Foxtail, Giant ([3]; Preemergence, 125 g ai/ha): 100 | Plant response rating, Johnsongrass ([4]; Postemergence, 16 g ai/ha): 20 | Plant response rating, Johnsongrass ([4]; Postemergence, 31 g ai/ha): 40 | Plant response rating, Johnsongrass ([4]; Postemergence, 62 g ai/ha): 75 | Plant response rating, Johnsongrass ([4]; Postemergence, 125 g ai/ha): 85 | Plant response rating, Johnsongrass ([4]; Preemergence, 31 g ai/ha): 5 | Plant response rating, Johnsongrass ([4]; Preemergence, 61 g ai/ha): 0 | Plant response rating, Johnsongrass ([4]; Preemergence, 62 g ai/ha): 5 | Plant response rating, Johnsongrass ([4]; Preemergence, 125 g ai/ha): 20 | Plant response rating, Kochia (kochia (Kochia scoparia); Postemergence, 16 g ai/ha): 40 | Plant response rating, Kochia (kochia (Kochia scoparia); Postemergence, 31 g ai/ha): 55 | Plant response rating, Kochia (kochia (Kochia scoparia); Postemergence, 62 g ai/ha): 65 | Plant response rating, Kochia (kochia (Kochia scoparia); Postemergence, 125 g ai/ha): 75 | Plant response rating, Kochia (kochia (Kochia scoparia); Preemergence, 31 g ai/ha): 70 | Plant response rating, Kochia (kochia (Kochia scoparia); Preemergence, 61 g ai/ha): 20 | Plant response rating, Kochia (kochia (Kochia scoparia); Preemergence, 62 g ai/ha): 85 | Plant response rating, Kochia (kochia (Kochia scoparia); Preemergence, 125 g ai/ha): 90 | Plant response rating, Lambsquarters ([5]; Postemergence, 16 g ai/ha): 90 | Plant response rating, Lambsquarters ([5]; Postemergence, 31 g ai/ha): 98 | Plant response rating, Lambsquarters ([5]; Postemergence, 62 g ai/ha): 100 | Plant response rating, Lambsquarters ([5]; Postemergence, 125 g ai/ha): 100 | Plant response rating, Lambsquarters ([5]; Preemergence, 31 g ai/ha): 80 | Plant response rating, Lambsquarters ([5]; Preemergence, 61 g ai/ha): 20 | Plant response rating, Lambsquarters ([5]; Preemergence, 62 g ai/ha): 90 | Plant response rating, Lambsquarters ([5]; Preemergence, 125 g ai/ha): 100 | Plant response rating, Morningglory ([6]; Postemergence, 16 g ai/ha): 98 | Plant response rating, Morningglory ([6]; Postemergence, 31 g ai/ha): 100 | Plant response rating, Morningglory ([6]; Postemergence, 62 g ai/ha): 100 | Plant response rating, Morningglory ([6]; Postemergence, 125 g ai/ha): 100 | Plant response rating, Morningglory ([6]; Preemergence, 31 g ai/ha): 90 | Plant response rating, Morningglory ([6]; Preemergence, 61 g ai/ha): 55 | Plant response rating, Morningglory ([6]; Preemergence, 62 g ai/ha): 98 | Plant response rating, Morningglory ([6]; Preemergence, 125 g ai/ha): 95 | Plant response rating, Oat, Wild (oat, wild (Avena fatua); Postemergence, 16 g ai/ha): 98 | Plant response rating, Oat, Wild (oat, wild (Avena fatua); Postemergence, 31 g ai/ha): 100 | Plant response rating, Oat, Wild (oat, wild (Avena fatua); Postemergence, 62 g ai/ha): 100 | Plant response rating, Oat, Wild (oat, wild (Avena fatua); Postemergence, 125 g ai/ha): 100 | Plant response rating, Oat, Wild (oat, wild (Avena fatua); Preemergence, 31 g ai/ha): 35 | Plant response rating, Oat, Wild (oat, wild (Avena fatua); Preemergence, 61 g ai/ha): 30 | Plant response rating, Oat, Wild (oat, wild (Avena fatua); Preemergence, 62 g ai/ha): 40 | Plant response rating, Oat, Wild (oat, wild (Avena fatua); Preemergence, 125 g ai/ha): 60 | Plant response rating, Pigweed, Palmer ([7]; Postemergence, 16 g ai/ha): 35 | Plant response rating, Pigweed, Palmer ([7]; Postemergence, 31 g ai/ha): 55 | Plant response rating, Pigweed, Palmer ([7]; Postemergence, 62 g ai/ha): 60 | Plant response rating, Pigweed, Palmer ([7]; Postemergence, 125 g ai/ha): 95 | Plant response rating, Pigweed, Palmer ([7]; Preemergence, 31 g ai/ha): 70 | Plant response rating, Pigweed, Palmer ([7]; Preemergence, 61 g ai/ha): 50 | Plant response rating, Pigweed, Palmer ([7]; Preemergence, 62 g ai/ha): 100 | Plant response rating, Pigweed, Palmer ([7]; Preemergence, 125 g ai/ha): 100 | Plant response rating, Ragweed ([8]; Postemergence, 16 g ai/ha): 98 | Plant response rating, Ragweed ([8]; Postemergence, 31 g ai/ha): 100 | Plant response rating, Ragweed ([8]; Postemergence, 62 g ai/ha): 98 | Plant response rating, Ragweed ([8]; Postemergence, 125 g ai/ha): 98 | Plant response rating, Ragweed ([8]; Preemergence, 31 g ai/ha): 95 | Plant response rating, Ragweed ([8]; Preemergence, 61 g ai/ha): 65 | Plant response rating, Ragweed ([8]; Preemergence, 62 g ai/ha): 98 | Plant response rating, Ragweed ([8]; Preemergence, 125 g ai/ha): 100 | Plant response rating, Ryegrass, Italian ([9]; Postemergence, 16 g ai/ha): 85 | Plant response rating, Ryegrass, Italian ([9]; Postemergence, 31 g ai/ha): 95 | Plant response rating, Ryegrass, Italian ([9]; Postemergence, 62 g ai/ha): 95 | Plant response rating, Ryegrass, Italian ([9]; Postemergence, 125 g ai/ha): 95 | Plant response rating, Ryegrass, Italian ([9]; Preemergence, 31 g ai/ha): 70 | Plant response rating, Ryegrass, Italian ([9]; Preemergence, 61 g ai/ha): 40 | Plant response rating, Ryegrass, Italian ([9]; Preemergence, 62 g ai/ha): 95 | Plant response rating, Ryegrass, Italian ([9]; Preemergence, 125 g ai/ha): 95 | Plant response rating, Surinam Grass ([10]; Postemergence, 16 g ai/ha): 90 | Plant response rating, Surinam Grass ([10]; Postemergence, 31 g ai/ha): 90 | Plant response rating, Surinam Grass ([10]; Postemergence, 62 g ai/ha): 95 | Plant response rating, Surinam Grass ([10]; Postemergence, 125 g ai/ha): 95 | Plant response rating, Surinam Grass ([10]; Preemergence, 31 g ai/ha): 55 | Plant response rating, Surinam Grass ([10]; Preemergence, 61 g ai/ha): 15 | Plant response rating, Surinam Grass ([10]; Preemergence, 62 g ai/ha): 70 | Plant response rating, Surinam Grass ([10]; Preemergence, 125 g ai/ha): 100 | Plant response rating, Windgrass ([11]; Postemergence, 16 g ai/ha): 90 | Plant response rating, Windgrass ([11]; Postemergence, 31 g ai/ha): 90 | Plant response rating, Windgrass ([11]; Postemergence, 62 g ai/ha): 95 | Plant response rating, Windgrass ([11]; Postemergence, 125 g ai/ha): 95 | Plant response rating, Windgrass ([11]; Preemergence, 31 g ai/ha): 80 | Plant response rating, Windgrass ([11]; Preemergence, 61 g ai/ha): 50 | Plant response rating, Windgrass ([11]; Preemergence, 62 g ai/ha): 95 | Plant response rating, Windgrass ([11]; Preemergence, 125 g ai/ha): 100

From patent publication US12435044B2, “Pyridazinone herbicides and pyridazinone intermediates used to prepare a herbicide” (FMC Corporation, priority 2018, dated 2025)
